Measured values as given in patent US6949522B2, “β-2′- or 3′-halonucleosides” (Pharmasset, Inc., priority 2001, dated 2005).

How the values were obtained:
[1] = test system: HIV-1 xxBRU (wild type); test: HIV-1 Q-RT-PCR assay in human PBM cells, strain xxBRU; type: cell-based; conditions: 5 days, viral RNA reduced by 90%
Experimental: (§1) Human PBM cells (1×10^6 cells/T25 flask) were PHA stimulated for 2 or 3 days, and infected with either a wild type (LAI and xxBRU) or a 3TC-resistant (xxBRU 184V) HIV-1 strain at 100 TCID50, as previously described (27). The culture was kept for 5 days in presence of test compounds at serial 1-log dilutions. Subsequently, human PBM cells were removed from the culture supernatant by centrifugation (10 minutes, 400×g, 4° C.). This clarified supernatant was tested either in the RT-assay, or in the Q-RT-PCR assay.
(§2) Viral RNA present in the culture supernatant was prepared using commercially available columns (QIAamp Viral RNA mini Kit, Qiagen, Valencia, Calif.). Viral RNA was detected in real-time by monitoring increases in fluorescence signal that resulted from degradation of a quenched fluorescent probe molecule following the hybridization of the probe to the arnplified viral DNA (TaqMan 7700 chemistry, Applied Biosystems, Foster City, Calif.). The TaqMan probe and primers were designed using the Primer Express software (Applied Biosystems); they cover highly conserved sequences complementary to an 81 base pair long fragment from the HIV-1 RT gene between codon 230 and 257 of the group MHIV-1 genome; • probe 5′-6FAM-[…]-TAMRA-3′ (Sequence 1) • sense primer: 5′-[…]-3′ (Sequence 2); and • antisense primer 5′-[…]-3′ (Sequence 3).
(§3) A total of 5 μL RNA was RT-amplified using reagents and conditions as described by the manufacturer (Applied Biosystems). […] Copy numbers were calibrated using the Roche Amplicor HIV-1 Monitor test™ (Roche Diagnostics, Branchburg, N.J.) on a 1-log dilution series of a clinical HIV-1 genotype B isolate (attenuated in vitro to obtain a high viral load). The 10-6 diluted sample became positive at threshold cycle (Ct=PCR cycle threshold where a sample becomes detectable)=35.52, which corresponded to 1,410 copies/mL in the Roche monitor HIV-1 version II assay. When validated over a dynamic range of 3 logs of virus, there was excellent correlation (r2˜1) between the two methodologies. […] Therefore, the currently designed primer and probe set allowed reliable quantification of both clinical samples and HIV-1 in vitro preparations.
(§4) HIV-1 present in culture supernatant fluids was quantified by two different methodologies: i) the Q-RT-PCR with read-out in log copies/mL; and ii) the endogenous viral RT assay on cell supernatant with read-out in log counts per minute/mL (CPM/mL). Upon addition of antiviral compounds to the culture media, a dose-related decrease in virus production was observed. Although the two methodologies measured different parameters (viral RNA versus active RT enzyme), results were not markedly different from each other. The HIV-1 Q-RT-PCR results were compared with a previously established cell-based antiviral drug evaluation assay (endogenous HIV-1 RT polymerization activity in cell supematant)(27).

[2] = test system: mitochondrial cytochrome C oxidase subunit II (COXII) gene; type: cell-based, human; conditions: HepG2, 10 μM, 7 days; for COXIINrDNA (range) relative to control: COXII DNA normalized to rDNA
[3] = test system: HIV-1 LAI (wild type); test: HIV-1 Q-RT-PCR assay in human PBM cells, strain LAI; type: cell-based; conditions: 5 days, viral RNA reduced by 90%
Experimental: as §1, §2, §3, §4

[4] = Human immunodeficiency virus 1, PBMC, 120 h

SMILES	EC90 [1, 4]	Average ΔCt ± SD COXII DNA [2]	Average ΔΔCt ± SD COXII-rDNA [2]	Average ΔΔCt ± SD COXII-β-actin [2]	EC90 [3, 4]	COXIINrDNA (range) relative to control ([2]; 2-ΔΔCt)	EC90 [1]	EC90 [3]	COXIINβ-actin DNA (range) relative to control ([2]; COXII DNA normalized to β-actin DNA, 2-ΔΔCt)
Cc1cn([C@H]2C[C@H](N=[N+]=[N-])[C@@H](CO)O2)c(=O)[nH]c1=O [AZT, 3′-azido-3′-deoxythymidine, reference compound]	0.01 µM	0.25 ± 0.13	−0.61 ± 0.56	0.16 ± 0.44	0.03 µM	–	–	–	–
Nc1ccn([C@@H]2C=C(F)[C@H](CO)O2)c(=O)n1 [Compound 10, 1-(2,3-Dideoxy-3-fluoro-β-L-glycero-pent-2-eno-furanosyl)cytosine]	35.4 µM	−0.29 ± 0.19	−0.21 ± 0.51	–	50.6 µM	1.16 (0.81-1.64)	–	–	–
Nc1nc(=O)n([C@@H]2S[C@H](CO)C=C2F)cc1F [Compound D-18, (−)-1-[(1S,4R)-2,3-dideoxy-2,3-didehydro-2-fluoro-4-thio-β-D-ribofuranosyl]-5-fluorocytosine]	–	−0.39 ± 0.43	0.06 ± 0.29	–	–	0.96 (0.78-1.17)	73.9 µM	> 100 µM	–
Nc1ccn([C@H]2S[C@@H](CO)C=C2F)c(=O)n1 [Compound L-17, (+)-1-[(1S,4R)-2,3-dideoxy-2,3-didehydro-2-fluoro-4-thio-β-L-ribofuranosyl]-cytosine]	–	−0.05 ± 0.16	−0.55 ± 0.75	–	–	1.46 (0.87-2.47)	2.1 µM	4.1 µM	–
Nc1ccn([C@@H]2CS[C@H](CO)O2)c(=O)n1 [Compound 3TC, (−)-β-2′,3′-dideoxy-3′-thiacytidine, reference compound]	0.06 µM	0.08 ± 0.33	−0.39 ± 0.50	−0.02 ± 0.43	0.37 µM	1.31 (0.92-1.88)	–	–	1.02 (0.75-1.37)
Nc1ccn([C@@H]2S[C@H](CO)C=C2F)c(=O)n1 [Compound D-17, (−)-1-[(1S,4R)-2,3-dideoxy-2,3-didehydro-2-fluoro4-thio-β-D-ribofuranosyl]-cytosine]	–	−0.14 ± 0.10	−0.96 ± 0.56	–	–	1.94 (1.31-2.87)	5.2 µM	24.6 µM	–
Nc1ccn([C@@H]2C=C(F)[C@H](CO)O2)c(=O)n1 [Compound 23, 1-(2,3-Didcoxy-3-fluoro-β-L-glycero-pent-2-eno-furanosyl)cytosine]	–	−0.16 ± 0.17	0.36 ± 0.41	–	–	0.78 (0.59-1.04)	0.6 µM	0.92 µM	–
Nc1nc(=O)n([C@H]2S[C@@H](CO)C=C2F)cc1F [Compound L-18, (+)-1-[(1S,4R)-2,3-dideoxy-2,3-didehydro-2-fluoro-4-thio-β-L-ribofuranosyl]-5-fluoro-cytosine]	–	−0.06 ± 0.24	−0.16 ± 0.56	–	–	1.12 (0.76-1.64)	0.94 µM	4.3 µM	–
